The values below are quoted from earlier work in patent US20260114445A1, “STABLE ANTIMICROBIAL FORMULATION CONCENTRATE” (Kimberly-Clark Worldwide, Inc., priority 2020, published 2026).

For the data set the following is noted: temperature not given.

In the case of `CCCCCCCC(=O)NO` [Caprylhydroxamic Acid], the water solubility result is given as “approximately 0.14%”.
